In patent EP1296672B2, “STABLE PHARMACEUTICAL PRODUCT AND FORMULATION” (LEK Pharmaceuticals d.d., priority 2000, dated 2001):
One block for each compound: values may come before it.

Columns and labels:
[1] = pH of unstabilized pravastatin Na crystals exposed to air atmosphere in different packagings; assay type: physicochemical; settings: for pH: exposed to air, pH measured in 5% aqueous solution
Experimental: Crystals of pravastatin Na were prepared as follows: […] The resulting clear yellow solution was cooled to 8°C and allowed to stand overnight. Formed radiating clusters of thin, long needle-like crystals were filtered, washed with ethyl acetate (20 ml) and dried. […]

[2] = pH of pravastatin Na crystals exposed to pure carbon dioxide in different packagings; assay type: physicochemical; settings: unstabilized pravastatin Na, carbon dioxide atmosphere, 5% aqueous solution
Experimental: Therefore the samples, in case of experiments where the correspondingly stabilised pravastatin was used, were exposed to the atmosphere of pure carbon dioxide, so the changes in pH become evident in a relatively short period of time such as a day or two.
The crystals were formed by addition of 400 ml of ethyl acetate containing 2% of water.

[3] = Experimental: In Fig. 1a, a HPLC chromatogram of a freshly perpared sample of pravastating Na is shown. The same pravastating Na was exposed to carbon dioxide atmosphere for one hour, and then a further HPLC chromatogram was prepared (Fig. 1b).

pH ([1]; time 0 hours): 8.3
pH ([1]; time 24 hours): 7.6
Structure (SMILES): CC[C@H](C)C(=O)O[C@H]1C[C@H](O)C=C2C=C[C@H](C)[C@H](CC[C@@H](O)C[C@@H](O)CC(=O)[O-])[C@H]21.[Na+] [1a, pravastatin Na]

pH ([1]; time 0 hours): 8.3
pH ([1]; time 24 hours): 7.9
Structure (SMILES): CC[C@H](C)C(=O)O[C@H]1C[C@H](O)C=C2C=C[C@H](C)[C@H](CC[C@@H](O)C[C@@H](O)CC(=O)[O-])[C@H]21.[Na+] [1b, pravastatin Na]

pH ([2]; time 0 h): 7.60
pH ([2]; time 1 h): 7.30
pH ([2]; time 5 h): 7.14
pH ([2]; time 70 h): 7.14
Structure (SMILES): CC[C@H](C)C(=O)O[C@H]1C[C@H](O)C=C2C=C[C@H](C)[C@H](CC[C@@H](O)C[C@@H](O)CC(=O)[O-])[C@H]21.[Na+] [2a, pravastatin Na]

pH of crystals ([1]; after one day): 7.6
pH of crystals ([1]; freshly prepared crystals): 8.3
Structure (SMILES): CC[C@H](C)C(=O)O[C@H]1C[C@H](O)C=C2C=C[C@H](C)[C@H](CC[C@@H](O)C[C@@H](O)CC(=O)[O-])[C@H]21.[Na+] [pravastatin Na]
degradation products (HPLC peaks) [3]: two different peaks in front of and three peaks after the peak of pravastatin Na appear
